ChEMBL document CHEMBL5512655, “Discovery of indolylacryloyl-derived oxacins as novel potential broad-spectrum antibacterial candidates” (Eur J Med Chem, 2024)
Converted amounts (≈) assume the structure as drawn.

What was measured:
Assay type in all cases: functional
Staphylococcus aureus [1] = test: Antibacterial activity against methicillin-resistant Staphylococcus aureus N315 assessed as inhibition of bacterial growth measured after 24 hrs incubation
Staphylococcus aureus [2] = test: Antibacterial activity against Staphylococcus aureus assessed as inhibition of bacterial growth measured after 24 hrs incubation
Staphylococcus aureus [3] = test: Antibacterial activity against Staphylococcus aureus ATCC 25923 assessed as inhibition of bacterial growth measured after 24 hrs incubation
Staphylococcus aureus [4] = test: Antibacterial activity against Staphylococcus aureus ATCC 29213 assessed as inhibition of bacterial growth measured after 24 hrs incubation
Enterococcus faecalis = test: Antibacterial activity against Enterococcus faecalis assessed as inhibition of bacterial growth measured after 24 hrs incubation
Klebsiella pneumoniae = test: Antibacterial activity against Klebsiella pneumonia assessed as inhibition of bacterial growth measured after 24 hrs incubation
Escherichia coli [5] = test: Antibacterial activity against Escherichia coli assessed as inhibition of bacterial growth measured after 24 hrs incubation
Escherichia coli [6] = test: Antibacterial activity against Escherichia coli ATCC 25922 assessed as inhibition of bacterial growth measured after 24 hrs incubation
Pseudomonas aeruginosa [7] = test: Antibacterial activity against Pseudomonas aeruginosa assessed as inhibition of bacterial growth measured after 24 hrs incubation
Pseudomonas aeruginosa [8] = test: Antibacterial activity against Pseudomonas aeruginosa ATCC 27853 assessed as inhibition of bacterial growth measured after 24 hrs incubation
Acinetobacter baumannii = test: Antibacterial activity against Acinetobacter baumannii assessed as inhibition of bacterial growth measured after 24 hrs incubation

SMILES | MIC (Staphylococcus aureus [1]) [µg/mL] | MIC (Staphylococcus aureus [2]) [µg/mL] | MIC (Staphylococcus aureus [3]) [µg/mL] | MIC (Staphylococcus aureus [4]) [µg/mL] | MIC (Enterococcus faecalis) [µg/mL] | MIC (Klebsiella pneumoniae) [µg/mL] | MIC (Escherichia coli [5]) [µg/mL] | MIC (Escherichia coli [6]) [µg/mL] | MIC (Pseudomonas aeruginosa [7]) [µg/mL] | MIC (Pseudomonas aeruginosa [8]) [µg/mL] | MIC (Acinetobacter baumannii) [µg/mL]
CCn1cc(C(=O)O)c(=O)c2cc(F)c(N3CCN(C(=O)/C(C#N)=C/c4cn(Cc5cccc(Cl)c5)c5ccccc45)CC3)cc21 | 1 (≈ 1.57 µM) | 32 (≈ 50.1 µM) | 2 (≈ 3.13 µM) | 4 (≈ 6.27 µM) | 8 (≈ 12.5 µM) | 0.5 (≈ 0.784 µM) | 16 (≈ 25.1 µM) | 8 (≈ 12.5 µM) | 32 (≈ 50.1 µM) | 0.25 (≈ 0.392 µM) | 8 (≈ 12.5 µM)
CCCCn1cc(/C=C(\C#N)C(=O)N2CCN(c3cc4c(cc3F)c(=O)c(C(=O)O)cn4CC)CC2)c2ccccc21 | 2 (≈ 3.51 µM) | 2 (≈ 3.51 µM) | 4 (≈ 7.02 µM) | 1 (≈ 1.76 µM) | 2 (≈ 3.51 µM) | 0.5 (≈ 0.878 µM) | 4 (≈ 7.02 µM) | 2 (≈ 3.51 µM) | 1 (≈ 1.76 µM) | 1 (≈ 1.76 µM) | 2 (≈ 3.51 µM)
CCn1cc(C(=O)O)c(=O)c2cc(F)c(N3CCN(C(=O)/C(C#N)=C/c4c(C)[nH]c5ccccc45)CC3)cc21 | 2 (≈ 3.79 µM) | 1 (≈ 1.9 µM) | 4 (≈ 7.58 µM) | 0.25 (≈ 0.474 µM) | 1 (≈ 1.9 µM) | 2 (≈ 3.79 µM) | 1 (≈ 1.9 µM) | 0.25 (≈ 0.474 µM) | 1 (≈ 1.9 µM) | 0.5 (≈ 0.948 µM) | 1 (≈ 1.9 µM)
CCn1cc(C(=O)O)c(=O)c2cc(F)c(N3CCN(C(=O)/C(C#N)=C/c4cn(CC5CC5)c5ccccc45)CC3)cc21 | 0.5 (≈ 0.881 µM) | 4 (≈ 7.05 µM) | 1 (≈ 1.76 µM) | 0.5 (≈ 0.881 µM) | 1 (≈ 1.76 µM) | 1 (≈ 1.76 µM) | 4 (≈ 7.05 µM) | 1 (≈ 1.76 µM) | 1 (≈ 1.76 µM) | 0.5 (≈ 0.881 µM) | 2 (≈ 3.52 µM)
CCn1cc(C(=O)O)c(=O)c2cc(F)c(N3CCN(C(=O)/C(C#N)=C/c4cn(CC=C(C)C)c5ccccc45)CC3)cc21 | 8 (≈ 13.8 µM) | 1 (≈ 1.72 µM) | 4 (≈ 6.88 µM) | 4 (≈ 6.88 µM) | 1 (≈ 1.72 µM) | 0.25 (≈ 0.43 µM) | 64 (≈ 110 µM) | 0.5 (≈ 0.86 µM) | 8 (≈ 13.8 µM) | 1 (≈ 1.72 µM) | 2 (≈ 3.44 µM)
CCn1cc(C(=O)O)c(=O)c2cc(F)c(N3CCN(C(=O)/C(C#N)=C/c4c[nH]c5c(C)cccc45)CC3)cc21 | 4 (≈ 7.58 µM) | 4 (≈ 7.58 µM) | 4 (≈ 7.58 µM) | 4 (≈ 7.58 µM) | 4 (≈ 7.58 µM) | 0.5 (≈ 0.948 µM) | 1 (≈ 1.9 µM) | 2 (≈ 3.79 µM) | 4 (≈ 7.58 µM) | 1 (≈ 1.9 µM) | 2 (≈ 3.79 µM)
CCOC(=O)Cn1cc(/C=C(\C#N)C(=O)N2CCN(c3cc4c(cc3F)c(=O)c(C(=O)O)cn4Cc3ccccc3)CC2)c2ccccc21 | 256 (≈ 387 µM) | 256 (≈ 387 µM) | 256 (≈ 387 µM) | 256 (≈ 387 µM) | 0.25 (≈ 0.378 µM) | 2 (≈ 3.02 µM) | 8 (≈ 12.1 µM) | 16 (≈ 24.2 µM) | 256 (≈ 387 µM) | 4 (≈ 6.05 µM) | 4 (≈ 6.05 µM)
CCn1cc(C(=O)O)c(=O)c2cc(F)c(N3CCN(C(=O)/C(C#N)=C/c4cn(CC5CCC5)c5ccccc45)CC3)cc21 | 0.25 (≈ 0.43 µM) | 0.25 (≈ 0.43 µM) | 0.25 (≈ 0.43 µM) | 0.25 (≈ 0.43 µM) | 0.5 (≈ 0.86 µM) | 0.25 (≈ 0.43 µM) | 0.5 (≈ 0.86 µM) | 0.5 (≈ 0.86 µM) | 0.25 (≈ 0.43 µM) | 4 (≈ 6.88 µM) | 0.25 (≈ 0.43 µM)
C=CCn1cc(C(=O)O)c(=O)c2cc(F)c(N3CCN(C(=O)/C(C#N)=C/c4cn(CC(=O)OCC)c5ccccc45)CC3)cc21 | 128 (≈ 209 µM) | 16 (≈ 26.2 µM) | 64 (≈ 105 µM) | 16 (≈ 26.2 µM) | 0.25 (≈ 0.409 µM) | 1 (≈ 1.63 µM) | 1 (≈ 1.63 µM) | 32 (≈ 52.3 µM) | 256 (≈ 419 µM) | 4 (≈ 6.54 µM) | 8 (≈ 13.1 µM)
CCCCCn1cc(/C=C(\C#N)C(=O)N2CCN(c3cc4c(cc3F)c(=O)c(C(=O)O)cn4CC)CC2)c2ccccc21 | 16 (≈ 27.4 µM) | 32 (≈ 54.8 µM) | 1 (≈ 1.71 µM) | 8 (≈ 13.7 µM) | 8 (≈ 13.7 µM) | 0.5 (≈ 0.857 µM) | 2 (≈ 3.43 µM) | 4 (≈ 6.85 µM) | 4 (≈ 6.85 µM) | 0.5 (≈ 0.857 µM) | 2 (≈ 3.43 µM)
CCn1cc(/C=C(\C#N)C(=O)N2CCN(c3cc4c(cc3F)c(=O)c(C(=O)O)cn4CC)CC2)c2ccccc21 | 0.25 (≈ 0.462 µM) | 0.25 (≈ 0.462 µM) | 0.25 (≈ 0.462 µM) | 0.25 (≈ 0.462 µM) | 0.5 (≈ 0.923 µM) | 0.25 (≈ 0.462 µM) | 64 (≈ 118 µM) | 2 (≈ 3.69 µM) | 4 (≈ 7.39 µM) | 1 (≈ 1.85 µM) | 1 (≈ 1.85 µM)
C#CCn1cc(/C=C(\C#N)C(=O)N2CCN(c3cc4c(cc3F)c(=O)c(C(=O)O)cn4CC)CC2)c2ccccc21 | 0.25 (≈ 0.453 µM) | 0.25 (≈ 0.453 µM) | 0.25 (≈ 0.453 µM) | 0.5 (≈ 0.906 µM) | 0.5 (≈ 0.906 µM) | 0.25 (≈ 0.453 µM) | 1 (≈ 1.81 µM) | 0.5 (≈ 0.906 µM) | 0.5 (≈ 0.906 µM) | 4 (≈ 7.25 µM) | 0.25 (≈ 0.453 µM)
